Values after ≈ are worked out from the molar mass of the structure shown. Bounds are passed on as bounds.

The subject of series [1] is Human immunodeficiency virus 1. The experiment in a line: Antiviral activity against HIV1 3B in CEM cells assessed as inhibition of viral-induced cytopathicity. The format is functional, organism-based. Particulars: Human immunodeficiency virus 1, 3B, CCRF-CEM. (Damage to the host cells serves as the signal in cytopathic effect assays.)
The nature of series [2]: Cytotoxicity against CEM cells after 5 days by MTT method. The conditions noted are these: human, CCRF-CEM (CEM) cells. It counts as cell-based. A general note: Tetrazolium assays rely on reduction of a dye to a coloured formazan, in cell work by metabolically active cells.
The target in series [3] is T1, Human immunodeficiency virus type 1 integrase (Human immunodeficiency virus 1, UniProt Q7ZJM1). The experiment in a line: Inhibition of HIV1 recombinant integrase 3'-processing activity.
The target in series [4] is T1, Human immunodeficiency virus type 1 integrase. As to the kind of experiment: Inhibition of HIV1 recombinant integrase strand transfer activity.
Series [5] relates to Mycobacterium tuberculosis. As to the kind of experiment: Antimycobacterial activity against Mycobacterium tuberculosis by agar dilution method. The format is functional.
Series [6] can be described thus: Selectivity index, ratio of CC50 for CEM cells to EC50 for HIV1 3B. It counts as functional, CCRF-CEM.

T1 sequence (Q7ZJM1 whole entry): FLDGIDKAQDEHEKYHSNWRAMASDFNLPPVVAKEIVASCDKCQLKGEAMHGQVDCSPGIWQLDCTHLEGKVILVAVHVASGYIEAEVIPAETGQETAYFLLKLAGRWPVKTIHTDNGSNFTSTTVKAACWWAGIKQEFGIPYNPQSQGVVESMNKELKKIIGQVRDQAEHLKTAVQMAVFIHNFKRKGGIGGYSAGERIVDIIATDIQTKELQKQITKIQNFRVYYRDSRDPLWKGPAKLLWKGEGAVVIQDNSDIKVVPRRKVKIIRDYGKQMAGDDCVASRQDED

For `CN(C)[C@@H]1C(O)=C(C(=O)NCN2CCN(c3cc4c(cc3F)c(=O)c(C(=O)O)cn4C3CC3)CC2)C(=O)[C@@]2(O)C(O)=C3C(=O)c4c(O)cccc4[C@@](C)(O)[C@H]3[C@H](O)[C@@H]12`, the half-maximal effective concentration (EC50) – broadly, the midpoint of the concentration-response curve – in series [1] is more than 17.7 µM. Also, the 50% cytotoxic concentration (CC50) (commonly the concentration giving 50% cytotoxicity) at 120 h in series [2] was 17.7 µM. Besides, the results for the IC50 in series [3] and in series [4] were 38 µM and 17 µM, respectively. For the same molecule, in series [5], it took 0.39 µg/mL (≈ 0.485 µM) to inhibit growth (MIC).
As for `CCn1cc(C(=O)O)c(=O)c2cc(F)c(N3CCN(CNC(=O)C4=C(O)[C@@H](N(C)C)[C@@H]5C[C@@H]6Cc7c(N(C)C)ccc(O)c7C(=O)C6=C(O)[C@]5(O)C4=O)C(C)C3)c(F)c21` (stereo not given in full), the EC50 in series [1] amounted to 5.2 µM. Also, in series [2], the 50% cytotoxic concentration (CC50) at 120 h was more than 200 µM. Moreover, in series [6], the “Ratio CC50/EC50” value is listed as more than 38. Moreover, the IC50 (in general, the concentration needed to halve the response being measured) in series [3] was found to be 20 µM; in series [4], 18 µM. Inhibition of growth in series [5] (MIC) required 0.2 µg/mL (≈ 0.244 µM).
For the molecule `COc1c(N2CCN(CNC(=O)C3=C(O)[C@@H](N(C)C)[C@@H]4C[C@@H]5Cc6c(N(C)C)ccc(O)c6C(=O)C5=C(O)[C@]4(O)C3=O)C(C)C2)c(F)cc2c(=O)c(C(=O)O)cn(C3CC3)c12` (stereo not given in full), in series [1], the EC50 is more than 126 µM. The molecule also showed a CC50 at 120 h in series [2] of 126 µM. Further, inhibition of growth in series [5] (MIC) required 0.2 µg/mL (≈ 0.237 µM).
The like results for `CCn1cc(C(=O)O)c(=O)c2cc(F)c(N3CCN(CNC(=O)C4=C(O)[C@@H](N(C)C)[C@@H]5[C@@H](O)[C@H]6C(=C(O)[C@]5(O)C4=O)C(=O)c4c(O)cccc4[C@@]6(C)O)C(C)C3)c(F)c21` (stereo not given in full) were, in that order, 15.1 µM, 37.4 µM and 0.78 µg/mL (≈ 0.947 µM).
Take `CN(C)[C@@H]1C(O)=C(C(=O)NCN2CCN(c3cc4c(cc3F)c(=O)c(C(=O)O)cn4C3CC3)CC2)C(=O)[C@@]2(O)C(O)=C3C(=O)c4c(O)cccc4[C@@](C)(O)[C@H]3C[C@@H]12`: the EC50 in series [1] was 8.4 µM. This molecule returned a CC50 at 120 h in series [2] of 141 µM. Besides, the IC50 came out at 20 µM in series [3] and 12 µM in series [4]. Also, the minimum inhibitory concentration (MIC) (usually the lowest concentration found to suppress growth) in series [5] is 0.39 µg/mL (≈ 0.495 µM).
In the case of `COc1c(N2CCN(CNC(=O)C3=C(O)[C@@H](N(C)C)[C@@H]4[C@@H](O)[C@H]5C(=C(O)[C@]4(O)C3=O)C(=O)c3c(O)cccc3[C@@]5(C)O)C(C)C2)c(F)cc2c(=O)c(C(=O)O)cn(C3CC3)c12` (stereo not given in full), the EC50 in series [1] was more than 28.9 µM. Moreover, half-maximal cytotoxicity in series [2] (CC50 at 120 h) was put at 28.9 µM. In addition, the half-maximal inhibitory concentration (IC50) was 28 µM in series [3] and 13.5 µM in series [4]. In addition, the MIC in series [5] is 0.39 µg/mL (≈ 0.46 µM).
On to `CCn1cc(C(=O)O)c(=O)c2cc(F)c(N3CCN(CNC(=O)C4=C(O)[C@@H](N(C)C)[C@@H]5C[C@@H]6Cc7c(N(C)C)ccc(O)c7C(=O)C6=C(O)[C@]5(O)C4=O)CC3)cc21`, for which the concentration giving a half-maximal response (EC50) in series [1] is more than 130 µM. This molecule yielded a CC50 at 120 h in series [2] of 130 µM. The molecule also displayed a minimum inhibitory concentration (MIC) in series [5] of 0.78 µg/mL (≈ 0.989 µM).
`CN(C)c1ccc(O)c2c1C[C@H]1C[C@H]3[C@H](N(C)C)C(O)=C(C(=O)NCN4CCN(c5cc6c(cc5F)c(=O)c(C(=O)O)cn6C5CC5)CC4)C(=O)[C@@]3(O)C(O)=C1C2=O`: the EC50 in series [1] is more than 120 µM. In series [2], this molecule came in with a CC50 at 120 h of 120 µM. For the same molecule, the MIC in series [5] was 0.78 µg/mL (≈ 0.974 µM).
Take `CCn1cc(C(=O)O)c(=O)c2cc(F)c(N3CCN(CNC(=O)C4=C(O)[C@@H](N(C)C)[C@@H]5C[C@H]6C(=C(O)[C@]5(O)C4=O)C(=O)c4c(O)cccc4[C@@]6(C)O)C(C)C3)c(F)c21` (stereo not given in full): the EC50 in series [1] was determined as 7.58 µM. The same molecule yielded a cytotoxic concentration (CC50) at 120 h in series [2] of more than 200 µM. Moreover, the figures for the IC50 in series [3] and in series [4] were 65 µM and 44 µM, respectively. In series [5], this molecule returned a minimum inhibitory concentration (MIC) of 1.56 µg/mL (≈ 1.93 µM).
Consider `COc1c(N2CCN(CNC(=O)C3=C(O)[C@@H](N(C)C)[C@@H]4C[C@H]5C(=C(O)[C@]4(O)C3=O)C(=O)c3c(O)cccc3[C@@]5(C)O)C(C)C2)c(F)cc2c(=O)c(C(=O)O)cn(C3CC3)c12` (stereo not given in full), for which, in series [1], the EC50 stood at 20.2 µM. This molecule returned a CC50 at 120 h in series [2] of 140 µM. The minimal inhibitory concentration (MIC) in series [5] was found to be 0.2 µg/mL (≈ 0.24 µM).
In the case of `CCn1cc(C(=O)O)c(=O)c2cc(F)c(N3CCN(CNC(=O)C4=C(O)[C@@H](N(C)C)[C@@H]5[C@@H](O)[C@H]6C(=C(O)[C@]5(O)C4=O)C(=O)c4c(O)cccc4[C@@]6(C)O)CC3)cc21`, in series [1], the half-maximal effective concentration (EC50) worked out at 12.2 µM. Also, the half-maximal cytotoxic concentration (CC50) at 120 h in series [2] is 40 µM. Further, the values for the IC50 in series [3] and in series [4] were 21 µM and 12 µM, respectively. In series [5], this molecule had an MIC of 0.78 µg/mL (≈ 0.985 µM).
In the case of `CCn1cc(C(=O)O)c(=O)c2cc(F)c(N3CCN(CNC(=O)C4=C(O)[C@@H](N(C)C)[C@@H]5C[C@H]6C(=C(O)[C@]5(O)C4=O)C(=O)c4c(O)cccc4[C@@]6(C)O)CC3)cc21`, in series [1], the EC50 turned out to be 14.6 µM. In series [2], this molecule registered a CC50 at 120 h of 131 µM. Further, the IC50 in series [3] was 20 µM; in series [4] it was 13 µM. Also, it took 0.78 µg/mL (≈ 1.01 µM) to inhibit growth in series [5] (MIC).
Consider `CCn1cc(C(=O)O)c(=O)c2cc(F)c(N3CCNC(C)C3)c(F)c21` (stereo not given) [LOMEFLOXACIN], for which the minimal inhibitory concentration (MIC) in series [5] stood at 6.25 µg/mL (≈ 17.8 µM).
Turning to `CN(C)c1ccc(O)c2c1C[C@H]1C[C@H]3[C@H](N(C)C)C(O)=C(C(N)=O)C(=O)[C@@]3(O)C(O)=C1C2=O` [MINOCYCLINE], in series [1], the EC50 was more than 52.1 µM. In series [2], this molecule registered a 50% cytotoxic concentration (CC50) at 120 h of 52.1 µM. In series [5], this molecule registered an MIC of more than 6.25 µg/mL.
Take `CN(C)[C@@H]1C(O)=C(C(=O)NCN2CCCC2)C(=O)[C@@]2(O)C(O)=C3C(=O)c4c(O)cccc4[C@@](C)(O)[C@H]3C[C@@H]12` [ROLITETRACYCLINE]: the EC50 in series [1] is more than 45.5 µM. Further, in series [2], the CC50 at 120 h worked out at 45.5 µM. Moreover, the figures for the half-maximal inhibitory concentration (IC50) in series [3] and in series [4] were 28 µM and 34 µM, respectively. Besides, the minimum inhibitory concentration (MIC) in series [5] is more than 6.25 µg/mL.
With `CN(C)[C@@H]1C(O)=C(C(N)=O)C(=O)[C@@]2(O)C(O)=C3C(=O)c4c(O)cccc4[C@@](C)(O)[C@H]3C[C@@H]12` [TETRACYCLINE], the concentration giving a half-maximal response (EC50) in series [1] was more than 40.5 µM. This molecule also registered a 50% cytotoxic concentration (CC50) at 120 h in series [2] of 40.5 µM. The results for the concentration for half-maximal inhibition (IC50) in series [3] and in series [4] were 204 µM and 188 µM, respectively. The MIC in series [5] was more than 6.25 µg/mL.
